Drawing on patent US10722515B2, “Dual CLK/CDK1 inhibitors for cancer treatment” (SRI INTERNATIONAL, priority 2016, dated 2020), this text covers IC50 and inhibition for 3 molecules.

Common to all, as to format: biochemical
The target in one assay is T1, CLK1(h) (Homo sapiens, UniProt P49759).
T1 construct: purchased Eurofins, Dundee, Scotland
The assay is described as follows: radiometric protein kinase assay, CLK1. To be noted: enzyme inhibition, radiometric, ATP 10 μM; read-out: IC50 (nM) CLK1. Here is the method:
(§1) Enzymatic biochemical activities were evaluated in radiometric protein kinase assays (Eurofins, Dundee, Scotland). Kinases are incubated with buffer, substrate and [γ-^33P]-ATP (specific activity approx. 500 cpm/pmol, concentration as required). The reaction is initiated by the addition of the MgATP mix. After incubation for 40 minutes at room temperature, the reaction is stopped by the addition of 3% phosphoric acid solution. 10 μL of the reaction is then spotted onto a P30 filtermat and washed three times for 5 minutes in 75 mM phosphoric acid and once in methanol prior to drying and scintillation counting.
(§2) All compounds are prepared to 50× final assay concentration in 100% DMSO. Positive control wells contain all components of the reaction with 2% DMSO. Blank wells contain all components of the reaction, with a reference inhibitor replacing the compound of interest. Each kinase is assigned a standard assay concentration of ATP within 20 μM of its apparent KM. Compounds were screened at 1 μM in duplicate or tested at 10 concentrations at half log dilution starting from 10 μM in singlicate. Dose response curves were fitted with four parameter logistic curve to obtain IC50 values. The average coefficient of variation (CV) of the conducted assay is 4.4%.

Another assay concerns the target T2, CLK4(h) (Homo sapiens, UniProt Q9HAZ1).
T2 construct: purchased Eurofins, Dundee, Scotland
Kind of assay: radiometric protein kinase assay, CLK4. To be noted: enzyme inhibition, ATP 10 μM. Here is the method: as §1, §2

In the next assay the target is T3, Aurora-B(h) (Homo sapiens, UniProt Q96GD4).
T3 construct: purchased Eurofins, Dundee, Scotland
T3 sequence (Q96GD4 whole entry): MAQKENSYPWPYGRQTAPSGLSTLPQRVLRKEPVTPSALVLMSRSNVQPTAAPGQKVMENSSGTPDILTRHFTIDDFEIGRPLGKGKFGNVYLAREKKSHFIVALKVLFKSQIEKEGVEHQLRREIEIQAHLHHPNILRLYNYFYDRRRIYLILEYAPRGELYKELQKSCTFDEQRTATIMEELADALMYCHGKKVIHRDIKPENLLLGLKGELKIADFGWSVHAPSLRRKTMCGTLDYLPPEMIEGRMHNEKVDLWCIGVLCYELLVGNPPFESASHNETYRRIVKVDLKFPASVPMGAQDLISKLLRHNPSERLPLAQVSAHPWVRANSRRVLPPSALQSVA
Kind of assay: kinase profile, radiometric assay, Aurora-B. How it is done:
as §1, §2

A further assay has as its target T4, EGFR(h) (Homo sapiens, UniProt P00533).
T4 construct: purchased Eurofins, Dundee, Scotland
The assay is described as follows: kinase profile, radiometric assay, EGFR. How it is done:
as §1, §2

A further assay has as its target T5, ErbB2(h) (Homo sapiens, UniProt P04626).
T5 construct: purchased Eurofins, Dundee, Scotland
The assay is described as follows: kinase profile, radiometric assay, ErbB2. How it is done:
as §1, §2

The target in another assay is T6, Fms(h) (Homo sapiens, UniProt P07333).
T6 construct: purchased Eurofins, Dundee, Scotland
T6 sequence (P07333 20-972): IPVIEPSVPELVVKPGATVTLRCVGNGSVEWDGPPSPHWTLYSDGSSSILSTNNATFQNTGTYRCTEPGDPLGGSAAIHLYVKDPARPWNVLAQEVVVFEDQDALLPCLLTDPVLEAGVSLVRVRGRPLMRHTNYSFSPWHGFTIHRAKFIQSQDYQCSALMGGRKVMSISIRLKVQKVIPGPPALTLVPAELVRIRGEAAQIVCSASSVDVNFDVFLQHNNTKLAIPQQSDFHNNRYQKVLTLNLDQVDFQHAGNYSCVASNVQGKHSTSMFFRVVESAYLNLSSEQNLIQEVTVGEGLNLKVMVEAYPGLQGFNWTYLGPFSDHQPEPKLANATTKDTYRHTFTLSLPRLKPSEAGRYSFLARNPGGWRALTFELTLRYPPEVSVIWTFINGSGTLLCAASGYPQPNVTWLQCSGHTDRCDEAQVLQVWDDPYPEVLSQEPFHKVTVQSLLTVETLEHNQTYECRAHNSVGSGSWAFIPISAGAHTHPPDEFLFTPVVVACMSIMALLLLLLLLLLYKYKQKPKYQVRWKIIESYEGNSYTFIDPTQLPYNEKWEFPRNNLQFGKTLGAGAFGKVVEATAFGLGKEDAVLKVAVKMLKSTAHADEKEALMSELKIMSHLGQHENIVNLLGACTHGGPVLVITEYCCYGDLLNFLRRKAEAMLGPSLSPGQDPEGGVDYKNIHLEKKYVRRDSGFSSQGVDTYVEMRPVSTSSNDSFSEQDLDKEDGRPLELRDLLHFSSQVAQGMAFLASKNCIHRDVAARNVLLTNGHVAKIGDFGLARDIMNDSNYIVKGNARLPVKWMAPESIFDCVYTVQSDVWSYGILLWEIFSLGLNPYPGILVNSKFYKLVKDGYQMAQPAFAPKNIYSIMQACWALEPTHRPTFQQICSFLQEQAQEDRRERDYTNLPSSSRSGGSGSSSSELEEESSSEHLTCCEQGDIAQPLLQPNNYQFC
Kind of assay: kinase profile, radiometric assay, Fms. How it is done:
as §1, §2

Another assay addresses T7, IKKβ(h) (Homo sapiens, UniProt O14920).
T7 construct: purchased Eurofins, Dundee, Scotland
T7 sequence (O14920 1-756): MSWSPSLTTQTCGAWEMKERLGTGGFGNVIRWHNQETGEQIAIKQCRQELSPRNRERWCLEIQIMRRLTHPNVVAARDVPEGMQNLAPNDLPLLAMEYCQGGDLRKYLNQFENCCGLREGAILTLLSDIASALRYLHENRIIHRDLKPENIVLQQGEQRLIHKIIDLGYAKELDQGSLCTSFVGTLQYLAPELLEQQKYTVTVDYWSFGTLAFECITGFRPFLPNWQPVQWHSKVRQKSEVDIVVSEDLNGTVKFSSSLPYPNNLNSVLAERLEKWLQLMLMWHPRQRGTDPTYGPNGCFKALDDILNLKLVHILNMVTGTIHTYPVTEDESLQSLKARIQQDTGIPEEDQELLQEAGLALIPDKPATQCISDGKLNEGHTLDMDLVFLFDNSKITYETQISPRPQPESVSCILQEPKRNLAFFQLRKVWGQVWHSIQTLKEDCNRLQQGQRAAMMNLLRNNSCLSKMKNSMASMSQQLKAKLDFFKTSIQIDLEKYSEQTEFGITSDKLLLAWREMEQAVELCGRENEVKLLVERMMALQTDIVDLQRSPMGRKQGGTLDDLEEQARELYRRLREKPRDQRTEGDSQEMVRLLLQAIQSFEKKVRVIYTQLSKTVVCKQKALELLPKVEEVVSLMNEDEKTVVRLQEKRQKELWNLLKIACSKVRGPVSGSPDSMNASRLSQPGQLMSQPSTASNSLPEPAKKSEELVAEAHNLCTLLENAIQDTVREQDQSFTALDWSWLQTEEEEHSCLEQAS
The assay is described as follows: kinase profile, radiometric assay, IKKβ. Here is the method: as §1, §2

A further assay addresses T8, JAK3(h) (Homo sapiens, UniProt P52333).
T8 construct: purchased Eurofins, Dundee, Scotland
T8 sequence (P52333 1-1124): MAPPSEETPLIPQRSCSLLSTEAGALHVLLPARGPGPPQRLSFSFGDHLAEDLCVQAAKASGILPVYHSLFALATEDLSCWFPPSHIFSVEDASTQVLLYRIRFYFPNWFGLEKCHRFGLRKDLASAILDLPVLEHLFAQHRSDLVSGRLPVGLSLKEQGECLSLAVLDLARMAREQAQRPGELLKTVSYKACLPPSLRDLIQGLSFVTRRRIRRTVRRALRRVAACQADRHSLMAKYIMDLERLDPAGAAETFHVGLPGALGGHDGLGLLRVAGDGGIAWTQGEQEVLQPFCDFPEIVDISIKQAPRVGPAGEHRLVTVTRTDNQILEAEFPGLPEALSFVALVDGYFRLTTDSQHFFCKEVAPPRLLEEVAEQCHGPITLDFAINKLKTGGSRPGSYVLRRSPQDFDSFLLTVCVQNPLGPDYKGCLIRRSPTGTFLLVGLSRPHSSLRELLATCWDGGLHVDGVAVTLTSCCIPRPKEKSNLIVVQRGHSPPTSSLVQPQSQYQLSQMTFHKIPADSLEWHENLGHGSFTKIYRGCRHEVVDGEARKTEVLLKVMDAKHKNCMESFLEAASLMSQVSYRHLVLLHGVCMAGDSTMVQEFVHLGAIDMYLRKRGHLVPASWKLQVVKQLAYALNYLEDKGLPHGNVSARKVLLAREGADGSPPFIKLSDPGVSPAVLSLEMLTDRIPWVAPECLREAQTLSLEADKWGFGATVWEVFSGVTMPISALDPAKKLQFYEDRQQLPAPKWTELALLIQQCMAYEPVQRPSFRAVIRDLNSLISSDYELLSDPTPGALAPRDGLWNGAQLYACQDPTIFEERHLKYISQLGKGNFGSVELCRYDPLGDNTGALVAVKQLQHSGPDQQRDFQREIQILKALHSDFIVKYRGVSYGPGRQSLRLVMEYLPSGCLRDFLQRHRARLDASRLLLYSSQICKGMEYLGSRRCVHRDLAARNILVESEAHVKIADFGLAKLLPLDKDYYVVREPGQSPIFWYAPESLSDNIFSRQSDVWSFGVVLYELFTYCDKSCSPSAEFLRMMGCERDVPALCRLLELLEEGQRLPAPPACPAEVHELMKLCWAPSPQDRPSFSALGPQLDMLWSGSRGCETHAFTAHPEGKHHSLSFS
The assay is described as follows: kinase profile, radiometric assay, JAK3. Here is the method:
as §1, §2

A further assay deals with T9, JNK2α2(h) (Homo sapiens, UniProt P45984).
T9 construct: purchased Eurofins, Dundee, Scotland
T9 sequence (P45984 whole entry): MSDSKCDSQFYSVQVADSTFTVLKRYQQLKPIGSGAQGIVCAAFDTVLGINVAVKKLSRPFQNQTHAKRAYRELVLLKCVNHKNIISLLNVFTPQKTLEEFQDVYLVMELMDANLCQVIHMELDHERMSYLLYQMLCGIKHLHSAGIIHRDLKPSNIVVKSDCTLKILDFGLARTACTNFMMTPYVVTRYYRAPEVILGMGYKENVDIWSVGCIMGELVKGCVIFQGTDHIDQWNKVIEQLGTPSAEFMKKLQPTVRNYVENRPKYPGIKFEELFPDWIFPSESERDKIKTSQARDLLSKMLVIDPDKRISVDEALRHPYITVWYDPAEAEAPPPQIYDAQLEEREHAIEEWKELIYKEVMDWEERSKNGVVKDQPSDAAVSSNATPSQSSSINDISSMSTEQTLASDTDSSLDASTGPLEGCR
Kind of assay: kinase profile, radiometric assay, JNK2α2. Here is the method: as §1, §2

For a further assay, the target named is T10, KDR(h) (Homo sapiens, UniProt P35968).
T10 construct: purchased Eurofins, Dundee, Scotland
T10 sequence (P35968 20-1356): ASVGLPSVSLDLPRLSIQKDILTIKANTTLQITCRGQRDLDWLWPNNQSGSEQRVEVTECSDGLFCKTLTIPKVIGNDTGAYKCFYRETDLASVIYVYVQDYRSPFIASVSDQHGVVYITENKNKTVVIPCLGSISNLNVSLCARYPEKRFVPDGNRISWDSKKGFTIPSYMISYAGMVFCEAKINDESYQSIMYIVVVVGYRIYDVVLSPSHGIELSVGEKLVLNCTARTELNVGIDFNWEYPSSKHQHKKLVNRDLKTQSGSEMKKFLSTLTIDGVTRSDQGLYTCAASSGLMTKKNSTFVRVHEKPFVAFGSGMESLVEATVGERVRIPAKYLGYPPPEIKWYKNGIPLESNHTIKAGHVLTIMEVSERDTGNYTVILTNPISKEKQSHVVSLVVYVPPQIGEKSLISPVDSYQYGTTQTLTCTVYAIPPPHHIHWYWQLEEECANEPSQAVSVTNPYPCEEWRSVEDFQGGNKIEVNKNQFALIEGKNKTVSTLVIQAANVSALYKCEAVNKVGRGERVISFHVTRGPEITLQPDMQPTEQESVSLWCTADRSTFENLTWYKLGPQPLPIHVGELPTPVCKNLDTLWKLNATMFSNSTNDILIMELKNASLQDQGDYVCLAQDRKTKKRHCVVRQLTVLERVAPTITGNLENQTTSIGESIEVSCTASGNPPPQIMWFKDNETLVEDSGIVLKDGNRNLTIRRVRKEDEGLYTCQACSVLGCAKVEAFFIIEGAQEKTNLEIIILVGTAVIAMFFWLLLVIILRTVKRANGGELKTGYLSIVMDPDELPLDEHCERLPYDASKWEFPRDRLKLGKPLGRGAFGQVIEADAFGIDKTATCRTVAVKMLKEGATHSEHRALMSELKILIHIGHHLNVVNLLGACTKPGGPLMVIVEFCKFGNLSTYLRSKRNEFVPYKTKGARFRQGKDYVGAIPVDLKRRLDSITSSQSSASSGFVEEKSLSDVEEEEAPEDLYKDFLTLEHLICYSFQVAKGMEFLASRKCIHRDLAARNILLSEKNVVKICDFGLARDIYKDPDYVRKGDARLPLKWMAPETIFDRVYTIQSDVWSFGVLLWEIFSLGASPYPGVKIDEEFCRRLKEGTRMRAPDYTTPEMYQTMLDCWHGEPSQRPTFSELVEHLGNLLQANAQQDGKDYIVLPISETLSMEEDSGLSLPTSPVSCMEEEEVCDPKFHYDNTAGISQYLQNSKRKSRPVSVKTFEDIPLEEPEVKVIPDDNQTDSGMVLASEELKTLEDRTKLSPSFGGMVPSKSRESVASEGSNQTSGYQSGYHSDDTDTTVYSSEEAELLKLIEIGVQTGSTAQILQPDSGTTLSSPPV
Kind of assay: kinase profile, radiometric assay, KDR. How it is done:
as §1, §2

The target in another assay is T11, Src(1-530)(h) (Homo sapiens, UniProt P12931).
T11 construct: Src(1-530)
T11 sequence (P12931 1-530): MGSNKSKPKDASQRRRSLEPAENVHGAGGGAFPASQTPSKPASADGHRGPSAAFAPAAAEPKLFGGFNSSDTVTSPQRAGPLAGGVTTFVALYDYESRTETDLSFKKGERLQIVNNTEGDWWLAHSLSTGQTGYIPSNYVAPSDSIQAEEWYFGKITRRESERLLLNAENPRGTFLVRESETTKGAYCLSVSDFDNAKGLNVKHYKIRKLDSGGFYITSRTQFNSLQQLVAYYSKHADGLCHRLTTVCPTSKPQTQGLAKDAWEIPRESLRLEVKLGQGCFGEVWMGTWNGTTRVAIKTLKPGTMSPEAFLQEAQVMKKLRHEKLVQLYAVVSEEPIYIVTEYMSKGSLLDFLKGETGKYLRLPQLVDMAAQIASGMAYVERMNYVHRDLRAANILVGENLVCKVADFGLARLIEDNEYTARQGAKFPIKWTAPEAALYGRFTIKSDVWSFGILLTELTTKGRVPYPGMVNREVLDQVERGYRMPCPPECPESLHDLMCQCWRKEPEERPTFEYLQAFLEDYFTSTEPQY
The assay is described as follows: kinase profile, radiometric assay, Src(1-530). How it is done:
as §1, §2

SMILES strings stand for the structures.

T5 sequence (P04626 23-1255): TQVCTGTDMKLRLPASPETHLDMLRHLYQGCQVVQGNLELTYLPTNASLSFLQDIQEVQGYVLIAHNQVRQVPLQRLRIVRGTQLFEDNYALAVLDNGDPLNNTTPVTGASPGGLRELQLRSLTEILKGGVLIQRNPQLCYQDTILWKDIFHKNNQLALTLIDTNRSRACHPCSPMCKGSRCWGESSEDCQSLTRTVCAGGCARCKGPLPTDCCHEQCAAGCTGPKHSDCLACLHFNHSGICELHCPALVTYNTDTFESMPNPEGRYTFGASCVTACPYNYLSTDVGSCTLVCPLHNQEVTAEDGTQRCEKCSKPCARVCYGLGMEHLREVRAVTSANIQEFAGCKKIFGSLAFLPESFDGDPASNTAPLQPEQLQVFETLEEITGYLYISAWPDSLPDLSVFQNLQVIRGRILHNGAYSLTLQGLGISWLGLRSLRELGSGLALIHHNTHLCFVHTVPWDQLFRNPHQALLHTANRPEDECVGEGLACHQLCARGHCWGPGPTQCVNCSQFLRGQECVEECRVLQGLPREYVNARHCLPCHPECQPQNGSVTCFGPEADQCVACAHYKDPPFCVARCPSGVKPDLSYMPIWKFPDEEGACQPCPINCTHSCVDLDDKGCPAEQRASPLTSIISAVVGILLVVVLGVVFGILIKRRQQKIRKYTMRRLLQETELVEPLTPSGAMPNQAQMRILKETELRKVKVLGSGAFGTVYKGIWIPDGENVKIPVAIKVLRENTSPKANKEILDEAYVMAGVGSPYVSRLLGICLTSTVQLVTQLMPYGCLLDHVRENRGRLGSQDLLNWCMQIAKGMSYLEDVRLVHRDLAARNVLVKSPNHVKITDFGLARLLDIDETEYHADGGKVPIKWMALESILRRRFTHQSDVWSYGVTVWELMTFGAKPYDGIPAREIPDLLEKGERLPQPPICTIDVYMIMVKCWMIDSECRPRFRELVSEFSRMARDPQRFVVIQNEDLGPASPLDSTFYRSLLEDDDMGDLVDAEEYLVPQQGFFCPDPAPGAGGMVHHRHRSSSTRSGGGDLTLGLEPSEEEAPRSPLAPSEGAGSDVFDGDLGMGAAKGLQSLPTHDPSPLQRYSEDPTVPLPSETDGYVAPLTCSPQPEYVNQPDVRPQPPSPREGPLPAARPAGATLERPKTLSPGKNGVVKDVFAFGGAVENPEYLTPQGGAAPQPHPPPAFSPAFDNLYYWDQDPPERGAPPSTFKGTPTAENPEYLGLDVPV

On to `CC(C)n1cnc2c(Nc3cc(N)cc(Cl)c3)nc(NC3CCCCC3N)nc21` (racemic) [Compound 14, Racemic N^6-Cis-(3-Amino-5-Chlorophenyl)-N^2-(2-Aminocyclohexyl)-9-Isopropyl-9H-Purine-2,6-Diamine], for which the IC50 at CLK1(h) is 18 nM; at CLK4(h), 54 nM. In addition, the inhibition at 1 µM against Aurora-B(h) was -16%; on EGFR(h), -1%; at ErbB2(h), 3%; on Fms(h), 9%; against IKKβ(h) it was -9%; on JAK3(h) it was 0%. In addition, the inhibition at 1 µM on JNK2α2(h) was -6%; on KDR(h) it was 4%; against Src(1-530)(h), 78%.

Take `CC(C)n1cnc2c(Nc3cccc(Cl)c3)nc(N[C@H]3CCCC[C@@H]3N)nc21` [Compound 8, N^2-((1S,2S)-2-Aminocyclohexyl)-V-(3-Chlorophenyl)-9-Isopropyl-9H-Purine-2,6-Diamine]: the 50% inhibitory concentration (IC50) on CLK1(h) is 78 nM; on CLK4(h) it was 86 nM. The inhibition at 1 µM is -15% at Aurora-B(h); -6% at EGFR(h); 2% against ErbB2(h); -1% against Fms(h); -2% on IKKβ(h); 0% on JAK3(h). The inhibition at 1 µM stood at 1% at JNK2α2(h), 16% on KDR(h) and 22% on Src(1-530)(h).

For `CC(C)n1cnc2c(Nc3cccc(Cl)c3)nc(N[C@@H]3CCCC[C@@H]3N)nc21` [Compound 9, N^2-((1R,2S)-2-Aminocyclohexyl)-N^6-(3-Chlorophenyl)-9-Isopropyl-9H-Purine-2,6-Diamine], the IC50 at CLK1(h) was found to be 38 nM; at CLK4(h), 50 nM. In addition, the inhibition at 1 µM on Aurora-B(h) is -16%; against EGFR(h), 3%; on ErbB2(h), 0%; at Fms(h), -16%; against IKKβ(h) it was -5%; at JAK3(h) it was 4%. For the same molecule, the figures for the inhibition at 1 µM at JNK2α2(h), at KDR(h) and on Src(1-530)(h) were 4%, -6% and 69%, respectively.

Usually IC50 stands for the concentration needed to halve the response being measured. As a reminder, the inhibition is the change of the read-out against control, counted positive when it falls.
